# Calls of active or inactive are those of the source. The rule behind the calls is not given here.
# Tests used:
# RAW264.7 [1] = assay: Antiinflammatory activity in mouse RAW264.7 assessed as decrease in LPS-induced TNF-alpha production at 10 uM pretreated with 1 ug/ml LPS for 22 hrs followed by addition of compound for 24 hrs by ELISA; assay type: functional, cell-based
# [2] = Octanol/water partition coefficient, logP of the compound by shake flask method; assay type: physicochemical
# RAW264.7 [3] = assay: Antiinflammatory activity in mouse RAW264.7 assessed as decrease in LPS-induced IL-6 production at 10 uM pretreated with 1 ug/ml LPS for 22 hrs followed by addition of compound for 24 hrs by ELISA; assay type: functional, cell-based
# RAW264.7 [4] = assay: Antiinflammatory activity in mouse RAW264.7 assessed as decrease in LPS-induced IL-6 production pretreated with 1 ug/ml LPS for 22 hrs followed by addition of compound for 24 hrs by ELISA; assay type: functional, cell-based
# RAW264.7 [5] = assay: Antiinflammatory activity in mouse RAW264.7 assessed as decrease in LPS-induced TNF-alpha production pretreated with 1 ug/ml LPS for 22 hrs followed by addition of compound for 24 hrs by ELISA; assay type: functional, cell-based
# RAW264.7 [6] = assay: Cytotoxicity against mouse RAW264.7 cells at 1 to 10 uM for 24 hrs by MTT assay; assay type: cell-based; conditions: raw264.7, 24 h
# RAW264.7 [7] = assay: Antiinflammatory activity in mouse RAW264.7 assessed as inhibition of LPS-induced notch-1 expression at 10 uM pretreated with 1 ug/ml LPS for 22 hrs followed by addition of compound for 24 hrs by Western blot analysis; assay type: functional, cell-based
# RAW264.7 [8] = assay: Cytotoxicity against mouse RAW264.7 cells at 100 uM for 24 hrs by MTT assay; assay type: cell-based; conditions: raw264.7, 24 h
# RAW264.7 [9] = assay: Antiinflammatory activity in LPS-induced mouse RAW264.7 assessed as inhibition of LPS-induced iNOS expression pretreated with 1 ug/ml LPS for 22 hrs followed by addition of compound for 24 hrs by Western blot analysis; assay type: functional, cell-based
SMILES,logP [2],Activity (RAW264.7 [1]),Activity (RAW264.7 [3]),Activity (RAW264.7 [4]),Activity (RAW264.7 [5]),Activity (RAW264.7 [6]),Activity (RAW264.7 [7]),Activity (RAW264.7 [8]),Activity (RAW264.7 [9])
COc1ccc2c(c1)c(CC(=O)O)c(C)n2C(=O)c1ccc(Cl)cc1,–,Active,Active,–,–,–,–,–,–
COc1ccc([C@@H]2CC(=O)c3c(cc(O)c(CNCCc4ccc([N+](=O)[O-])cc4)c3O)O2)cc1O,1.73,Active,Active,–,–,–,–,–,–
COc1ccc([C@@H]2CC(=O)c3c(cc(O)c(CNCCc4ccc(Cl)cc4)c3O)O2)cc1O,1.77,Active,Active,–,–,–,–,–,–
COc1ccc([C@@H]2CC(=O)c3c(cc(O)c(CN4CCN(CCO)CC4)c3O)O2)cc1O,1.15,Active,Active,–,–,–,–,–,–
COc1ccc([C@@H]2CC(=O)c3c(cc(O)c(CNCCCN4CCOCC4)c3O)O2)cc1O,1.2,Active,Active,–,–,–,–,–,–
COc1ccc([C@@H]2CC(=O)c3c(O)cc(O)cc3O2)cc1O [HESPERETIN],2.15,Active,Active,–,–,Non-toxic,–,–,–
COc1ccc([C@@H]2CC(=O)c3c(cc(O)c(CN4CCN(CCN5CCOCC5)CC4)c3O)O2)cc1O,1.18,Active,Active,–,–,–,–,–,–
COc1ccc(CCNCc2c(O)cc3c(c2O)C(=O)C[C@@H](c2ccc(OC)c(O)c2)O3)cc1,1.56,Active,Active,–,–,Non-toxic,–,Toxic,–

# The next lines start with results.
logP [2],SMILES,Activity (RAW264.7 [1]),Activity (RAW264.7 [3]),Activity (RAW264.7 [4]),Activity (RAW264.7 [5]),Activity (RAW264.7 [6]),Activity (RAW264.7 [7]),Activity (RAW264.7 [8]),Activity (RAW264.7 [9])
0.04,CCC(C)NCc1c(O)cc2c(c1O)C(=O)C[C@@H](c1ccc(OC)c(O)c1)O2 (stereo not given in full),Active,Active,–,–,–,–,–,–
1.72,COc1ccc([C@@H]2CC(=O)c3c(cc(O)c(CNC(C)c4ccccc4)c3O)O2)cc1O (stereo not given in full),Active,Active,–,–,–,–,–,–
-0.26,COc1ccc([C@@H]2CC(=O)c3c(cc(O)c(CNC(C)C)c3O)O2)cc1O,Active,Active,Dose-dependent effect,Dose-dependent effect,Non-toxic,Active,–,–
1.03,COc1ccc([C@@H]2CC(=O)c3c(cc(O)c(CN(C)C)c3O)O2)cc1O,Active,Active,–,–,–,–,–,–
1.23,COc1ccc([C@@H]2CC(=O)c3c(cc(O)c(CN4CCOCC4)c3O)O2)cc1O,Active,Active,–,–,–,–,–,–
-0.76,COc1ccc([C@@H]2CC(=O)c3c(cc(O)c(CNC(C)(C)C)c3O)O2)cc1O,Active,Active,Dose-dependent effect,Dose-dependent effect,Non-toxic,Active,Toxic,Dose-dependent effect
1.67,COc1ccc([C@@H]2CC(=O)c3c(cc(O)c(CNCCc4ccccc4)c3O)O2)cc1O,Active,Active,–,–,Non-toxic,–,Toxic,–
-0.75,CCN1CCN(Cc2c(O)cc3c(c2O)C(=O)C[C@@H](c2ccc(OC)c(O)c2)O3)CC1,Active,Active,Dose-dependent effect,Dose-dependent effect,Non-toxic,Active,Toxic,–
1.68,CCN(CC)Cc1c(O)cc2c(c1O)C(=O)C[C@@H](c1ccc(OC)c(O)c1)O2,Active,Active,–,–,Non-toxic,–,–,–
1.19,COc1ccc([C@@H]2CC(=O)c3c(cc(O)c(CN4CCN(C)CC4)c3O)O2)cc1O,Active,Active,–,–,Non-toxic,–,–,–

# — ChEMBL document CHEMBL3763074, “Hesperetin derivatives: Synthesis and anti-inflammatory activity” (Bioorg Med Chem Lett, 2016)
